Test results taken from patent publication US5567605A, “Assay for D-allose using a NAD cofactor coupled D-allose dehydrogenase” (UOP, priority 1994, dated 1996).
Where “and” joins values, the source holds several entries; their conditions need not be identical. Equal entries are not always repeated. Blank lines part the entries; values can stand above or below the molecule they belong to.

Assays:
[1] = system: D-allose dehydrogenase; assay: NAD cofactor coupled D-allose dehydrogenase spectrophotometric enzyme assay (340 nm); assay type: biochemical, Exophiala pisciphila; conditions: for Activity (carbohydrate specificity): Sugar 100 mM as substrate, pH 9.0, 30° C., same dose of enzyme extract
Method: Soil and water samples were obtained from several sites and incubated with D-allose in a basic salts solution. The bacterial and fungal cultures were grown aerobically at 30° C. in a rotary incubator at 250 rpm. The basic salts growth medium contained: Na2 HPO4, 16 raM; KH2 PO4, 34 mM; (NH4)2 SO4, 15 mM; MgSO4, 1 mM; CaCl2, 0.1 mM; FeSO4, 0.01 mM and D-allose, 10 mM. The pH of the medium was 6.5. After growth in liquid, as determined by an increase in optical density, the cultures were streaked out on solid agar media containing D-allose as the growth substrate. […] After growth on D-allose, the individual cultures were harvested by centrifugation and the cells disrupted using a sonicator. Cell debris was removed by centrifugation and the crude cell extract was assayed for D-allose dehydrogenase enzymatic activity.
The enzyme assay was performed with a Beckman DU70 recording spectrophotometer using 340 nanometer wavelength light with 20 sec. interval readings for a 10 minute time period. Assays were run in 1 ml cuvettes at a constant temperature of 30° C. The instantaneous reaction rate was measured as the change in optical density per minute; activity was calculated at early reaction times when the changes in optical density were linear with time. The rate of enzyme reaction is directly proportional to the appearance of reduced NAD at 340 nm, because the enzyme oxidizes D-allose and transfers two protons from D-allose to NAD. The extinction coefficient of NADH2 (6.23 OD/1 mM solution) was used to convert the change in optical density per minute to micromoles of product. A standard curve of reaction rate versus substrate concentration was used to determine the D-allose concentration in unknown samples (FIG. 1). The Km of an enzyme is the concentration of substrate that gives one half maximal reaction rate and is thus a measure of the affinity of the enzyme for this substrate. The Vmax of an enzyme is the maximum rate of reaction that can be obtained where the substrate concentration is fully saturating the enzyme. […] An internal standard control using a 20 mM addition of D-allose to a duplicate unknown sample was used to determine if the sample interfered with D-allose measurement. If interference was detected, the unknown sample D-allose concentration was corrected for by the percent interference measured in the internal control sample.
The spectrophotometric enzyme reactions were performed in a 1 mL cuvette that contained the following. […]
The results of Table 1 were obtained at 30° C. using a solution containing 100 mM in D-allose.
In this series, a constant amount of enzyme extract was added to D-allose at various concentrations with the results summarized in Table 2.
In these experiments 1 mL of a 100 mM solution of various sugars were treated at pH 9.0 and 30° C. with the same dose of enzyme extract.

[2] = system: D-allose dehydrogenase; assay: Visual qualitative D-allose assay with electron accepting dyes; assay type: biochemical, Exophiala pisciphila; conditions: phenozine methosulfate and nitro blue tetrazolium, phosphate buffer pH 8.0
Source text: The assay can be coupled with electron accepting dyes to form a visual qualitative D-allose assay. […] Control samples without D-allose remain light pink. The nature of the electron-accepting dye is not critical to the success of this qualitative assay; electron-accepting dyes are well known in the biochemical arts and are merely exemplified by the class of tetrazolium salts, one of which is nitro blue tetrazolium.
The visual D-allose assay contained: […]

[3] = animals and humans; cited from earlier work

Structure (SMILES): O=C[C@@H](O)[C@H](O)[C@H](O)[C@H](O)CO [D-altrose, reference compound]
Activity (carbohydrate specificity) [1]: < 0.07 µmol/min/mL

Structure (SMILES): O=C[C@H](O)[C@H](O)[C@H](O)[C@H](O)CO [D-allose]
Km ([1]; 30° C., pH 9.0 glycine-NaOH, NAD 5 mM, read-out: apparent Km for the enzyme with D-allose as substrate): 77 mM | Activity ([1]; Buffer 0.2 molar, initial pH 9.0, final pH 8.5, 100 mM D-allose, 30° C.): 2.35 µmol/min/mL | Activity ([1]; Buffer 0.5 molar, initial pH 9.0, final pH 8.9, 100 mM D-allose, 30° C.): 2.56 µmol/min/mL | Activity ([1]; Buffer 1.0 molar, initial pH 9.0, final pH 9.0, 100 mM D-allose, 30° C.): 2.75 µmol/min/mL | Activity ([1]; Buffer 2.0 molar, initial pH 9.0, final pH 9.0, 100 mM D-allose, 30° C.): 3.13 µmol/min/mL | Activity ([1]; D-allose 1 mM, constant amount of enzyme extract): 0.13 μmole/min/ml of extract | % Inhibition ([1]; D-allose 10 mM in 20% human serum): 16% | Activity ([1]; D-allose 10 mM, constant amount of enzyme extract): 0.80 μmole/min/ml of extract | Activity ([1]; D-allose 100 mM, constant amount of enzyme extract): 3.07 μmole/min/ml of extract | Activity ([1]; Enzyme Extract 20 μL, 100 mM D-allose, 30° C.): 0.09 µmol/min | Activity ([1]; Enzyme Extract 50 μL, 100 mM D-allose, 30° C.): 0.15 µmol/min | Activity ([1]; Enzyme Extract 100 μL, 100 mM D-allose, 30° C.): 0.26 µmol/min | Activity (carbohydrate specificity) [1]: 2.93 µmol/min/mL | Activity ([1]; pH of assay buffer 8.0, 100 mM D-allose, 30° C.): < 0.05 µmol/min/mL | Activity ([1]; pH of assay buffer 8.5, 100 mM D-allose, 30° C.): 0.78 µmol/min/mL | Activity ([1]; pH of assay buffer 9.0, 100 mM D-allose, 30° C.): 2.38 µmol/min/mL and 2.31 µmol/min/mL | Activity ([1]; pH of assay buffer 9.5, 100 mM D-allose, 30° C.): 0.10 µmol/min/mL | Activity ([1]; pH of assay buffer 10.0, 100 mM D-allose, 30° C.): < 0.05 µmol/min/mL | visual color change [2]: color change from light pink to dark blue | excretion [3]: easily excreted | metabolism [3]: not readily metabolized

More lines, now with the values ahead:

Activity (carbohydrate specificity) [1]: < 0.07 µmol/min/mL
Structure (SMILES): O=C[C@H](O)[C@@H](O)[C@H](O)[C@H](O)CO [D-glucose, reference compound]

Activity (carbohydrate specificity) [1]: < 0.07 µmol/min/mL
Structure (SMILES): O=C[C@@H](O)[C@@H](O)[C@H](O)[C@H](O)CO [D-mannose, reference compound]

Activity (carbohydrate specificity) [1]: < 0.07 µmol/min/mL
Structure (SMILES): O=C[C@H](O)[C@H](O)[C@H](O)CO [D-ribose, reference compound]
